Like-named read-outs stand apart in the source and are kept apart here.
Legend:
[1] = tested on: human hepatoma cells (HepG2); experiment: MTT tumor cell proliferation inhibition test, HepG2; assay type: cell-based; conditions: read-out: Half Inhibitory Concentration IC50 HepG2
Protocol: (§1) The compounds of the present invention were subjected to tumor cell proliferation inhibition test, and conventional MTT method was used.
(§2) Cell lines: human hepatoma cells (HepG2), human lung cancer cells (A-549), human gastric cancer cells (SGC-7901). The culture medium was DMEM+15% NBS+double antibody.
(§3) Sample solution preparation: after dissolving with DMSO (Merck), PBS (−) was added to obtain 100 μmol/L solution or homogeneous suspension. The solution was diluted with PBS (−) in DMSO to a final concentration of 0.1, 1, 10, 20, 40, 60, 80, 100 μmol/L.
(§4) Gossypol was used as control solution, prepared under the same condition.
(§5) Cell culture: adherent growth Tumor cells were cultured in 1640 medium containing 10% inactivated neonatal bovine serum and penicillin, streptomycin (1 million U/L), placed in carbon dioxide incubator at 37° C., 5% CO2, and saturated humidity. Cells were treated serially passaged 2-3 times. The first culture was washed with PBS 2 times, and digested with trypsin. Fresh culture medium was added evenly, cells were adjusted to a appropriate concentration and transferred into a new culture flask. Cell in an exponential phase were chosen for the tests.
(§6) MTT Assay for Cell Viability and IC50 Determination:
(§7) Experimental Principle: Living cells mitochondria in the dehydrogenase can reduce yellow MTT to water-insoluble blue-violet product MT (MTT formazan), deposited in the cells. The amount of production is proportional to the number of living cells. […] DMSO can dissolve blue violet crystals, and the color depth is proportional to the amount contained, so the absorbance measured by the microplate reader can reflect the cell viability.
(§8) Methods: The exponential phase cells were digested and counted and seeded in 96-well plates at a density of 2×10^4/mL at 100 μl per well. After 24 hours of incubation, the cells to be tested were treated with 0.1, 1, 10, 20, 40, 60, 80, 100 μmol/L of the compounds. Each experimental group had 5 wells in each concentration, and the culture medium containing 0.4% DMSO was used as control. After 48 hours, the supernatant was discarded, and 100 μl of MTT ((2-(4,5-dimethyl-2-thiazolyl)-3,5-diphenyl-2H-[…]) (1 mg/mL) was added to each well. After another 4 hours, the supernatant was discarded, and 100 μl of DMSO was added to each well. After mixing, the absorbance was measured at 570 nm using a microplate reader. An IC50 calculation software was used to determine the half inhibitory concentration (IC50).

[2] = tested on: human lung cancer cells (A-549); experiment: MTT tumor cell proliferation inhibition test, A-549; assay type: cell-based; conditions: read-out: Half Inhibitory Concentration IC50 A549
Protocol: as §1, §2, §3, §4, §5, §6, §7, §8

[3] = tested on: human gastric cancer cells (SGC-7901); experiment: MTT tumor cell proliferation inhibition test, SGC-7901; assay type: cell-based; conditions: read-out: Half Inhibitory Concentration IC50 SGC-7901
Protocol: as §1, §2, §3, §4, §5, §6, §7, §8

[4] = tested on: three cell lines tested (HepG2, A-549, SGC-7901); experiment: MTT tumor cell proliferation inhibition test, summary over the three cell lines; assay type: cell-based, human
Protocol: as §1, §2, §3, §4
as §5, with “Cell in an exponential phase were chosen for the tests.” left out
as §7, with “the” for “the cells. The amount of production is proportional to the number of living”
as §8, with “After 24 hours of incubation, the cells to be tested were treated with 0.1, 1, 10, 20, 40, 60, 80, 100 μmol/L of the compounds. Each experimental group had 5 wells in each concentration, and the culture medium containing 0.4% DMSO was used as control.” left out

[5] = HepG2 cells, MTT, 48 hours treatment
[6] = A549 cells, MTT, 48 hours treatment
[7] = SGC-7901 cells, MTT, 48 hours treatment

| IC50 [1, 5] [µM] | IC50 [2, 6] [µM] | IC50 [3, 7] [µM] | SMILES | IC50 ([1]; HepG2, 48 h) [µM] | IC50 ([2]; A549, 48 h) [µM] | IC50 ([3]; SGC-7901, 48 h) [µM] | antitumor activities (verbal summary) [4] |
| --- | --- | --- | --- | --- | --- | --- | --- |
| > 100 | > 100 | 54.3 ± 2.85 | Cc1cc2c(c(O)c1-c1c(C)cc3c(c1O)/C(=C/c1c(O)c4c(O)cc(O)cc4oc1=O)C(=O)C(O)=C3C(C)C)/C(=C/c1c(O)c3c(O)cc(O)cc3oc1=O)C(=O)C(O)=C2C(C)C [Compound B-5, (8Z,8′Z)-1,1′,6,6′-tetrahydroxy-5,5′-diisopropyl-3,3′-dimethyl-8,8′-bis((4,5,7-trihydroxy-2-oxo-2H-chromen-3-yl)methylene)-[2,2′-binaphthalene]-7,7′(8H,8′H)-dione] |  |  |  |  |
| 22.4 ± 0.58 | 38.4 ± 0.79 | 40 ± 1.43 | COc1cccc2c(O)c(/C=C3\C(=O)C(O)=C(C(C)C)c4cc(C)c(-c5c(C)cc6c(c5O)/C(=C/c5c(O)c7cccc(OC)c7oc5=O)C(=O)C(O)=C6C(C)C)c(O)c43)c(=O)oc12 [Compound B-4, (8Z,8′Z)-1,1′,6,6′-tetrahydroxy-8,8′-bis((4-hydroxy-8-methoxy-2-oxo-2H-chromen-3-yl)methylene)-5,5′-diisopropyl-3,3′-dimethyl-[2,2′-binaphthalene]-7,7′(8H,8′H)-dione] |  |  |  |  |
| > 100 | > 100 | > 100 | Cc1cc2c(c(O)c1-c1c(C)cc3c(C(C)C)c(O)c(O)c(C=O)c3c1O)/C(=C/c1c(O)c3cc(Cl)ccc3oc1=O)C(=O)C(O)=C2C(C)C [Compound A-2, (Z)-8′-((6-chloro-4-hydroxy-2-oxo-2H-chromen-3-yl)methylene)-1,1′,6,6′,7-pentahydroxy-5,5′-diisopropyl-3,3′-dimethyl-7′-oxo-7′,8′-dihydro-[2,2′-binaphthalene]-8-carbaldehyde] |  |  |  |  |
| > 100 | > 100 | 88.8 ± 3.02 | Cc1cc2c(c(O)c1-c1c(C)cc3c(C(C)C)c(O)c(O)c(C=O)c3c1O)/C(=C/c1c(O)c3c(O)cc(O)cc3oc1=O)C(=O)C(O)=C2C(C)C [Compound A-5, (Z)-1,1′,6,6′,7-pentahydroxy-5,5′-diisopropyl-3,3′-dimethyl-7′-oxo-8′-((4,5,7-trihydroxy-2-oxo-2H-chromen-3-yl)methylene)-7′,8′-dihydro-[2,2′-binaphthalene]-8-carbaldehyde] |  |  |  |  |
| 26.5 ± 1.02 | 43.4 ± 1.21 | 31.2 ± 1.33 | COc1cccc2c(O)c(/C=C3\C(=O)C(O)=C(C(C)C)c4cc(C)c(-c5c(C)cc6c(C(C)C)c(O)c(O)c(C=O)c6c5O)c(O)c43)c(=O)oc12 [Compound A-4, (Z)-1,1′,6,6′,7-pentahydroxy-8′-((4-hydroxy-8-methoxy-2-oxo-2H-chromen-3-yl)methylene)-5,5′-diisopropyl-3,3′-dimethyl-7′-oxo-7′,8′-dihydro-[2,2′-binaphthalene]-8-carbaldehyde] |  |  |  |  |
| 42.1 ± 1.04 | > 100 | 32.6 ± 1.81 | Cc1cc(C)c2c(O)c(/C=C3\C(=O)C(O)=C(C(C)C)c4cc(C)c(-c5c(C)cc6c(C(C)C)c(O)c(O)c(C=O)c6c5O)c(O)c43)c(=O)oc2c1 [Compound A-6, (Z)-1,1′,6,6′,7-pentahydroxy-8′-((4-hydroxy-5,7-dimethyl-2-oxo-2H-chromen-3-yl)methylene)-5,5′-diisopropyl-3,3′-dimethyl-7′-oxo-7′,8′-dihydro-[2,2′-binaphthalene]-8-carbaldehyde] |  |  |  |  |
|  |  |  | Cc1cc2c(C(C)C)c(O)c(O)c(C=O)c2c(O)c1-c1c(C)cc2c(C(C)C)c(O)c(O)c(C=O)c2c1O [Gossypol] | 18.4 ± 0.71 | 26.3 ± 1.89 | 43.6 ± 2.03 |  |
| 17.8 ± 0.95 | 26.7 ± 1.12 | 30.7 ± 1.31 | Cc1cc2c(c(O)c1-c1c(C)cc3c(C(C)C)c(O)c(O)c(C=O)c3c1O)/C(=C/c1c(O)c3ccc(O)cc3oc1=O)C(=O)C(O)=C2C(C)C [Compound A-3, (Z)-8′-((4,7-dihydroxy-2-oxo-2H-chromen-3-yl)methylene)-1,1′,6,6′,7-pentahydroxy-5,5′-diisopropyl-3,3′-dimethyl-7′-oxo-7′,8′-dihydro-[2,2′-binaphthalene]-8-carbaldehyde] |  |  |  | good antitumor activities |
| 15.2 ± 0.34 | 22.3 ± 0.9 | 26.9 ± 1.35 | Cc1cc2c(c(O)c1-c1c(C)cc3c(c1O)/C(=C/c1c(O)c4ccccc4oc1=O)C(=O)C(O)=C3C(C)C)/C(=C/c1c(O)c3ccccc3oc1=O)C(=O)C(O)=C2C(C)C [Compound B-1, (8Z,8′Z)-1,1′,6,6′-tetrahydroxy-8,8′-bis((4-hydroxy-2-oxo-2H-chromen-3-yl)methylene)-5,5′-diisopropyl-3,3′-dimethyl-[2,2′-binaphthalene]-7,7′(8H,8′H)-dione] |  |  |  | good antitumor activities |
| > 100 | 68.5 ± 2.44 | > 100 | Cc1cc2c(c(O)c1-c1c(C)cc3c(c1O)/C(=C/c1c(O)c4cc(Cl)ccc4oc1=O)C(=O)C(O)=C3C(C)C)/C(=C/c1c(O)c3cc(Cl)ccc3oc1=O)C(=O)C(O)=C2C(C)C [Compound B-2, (8Z,8′Z)-8,8′-bis((6-chloro-4-hydroxy-2-oxo-2H-chromen-3-yl)methylene)-1,1′,6,6′-tetrahydroxy-5,5′-diisopropyl-3,3′-dimethyl-[2,2′-binaphthalene]-7,7′(8H,8′H)-dione] |  |  |  |  |
| 16.7 ± 0.45 | 28.6 ± 0.64 | 33.2 ± 1.01 | Cc1cc2c(c(O)c1-c1c(C)cc3c(c1O)/C(=C/c1c(O)c4ccc(O)cc4oc1=O)C(=O)C(O)=C3C(C)C)/C(=C/c1c(O)c3ccc(O)cc3oc1=O)C(=O)C(O)=C2C(C)C [Compound B-3, (8Z,8′Z)-8,8′-bis((4,7-dihydroxy-2-oxo-2H-chromen-3-yl)methylene)-1,1′,6,6′-tetrahydroxy-5,5′-diisopropyl-3,3′-dimethyl-[2,2′-binaphthalene]-7,7′(8H,8′H)-dione] |  |  |  |  |
| 10.7 ± 0.65 | 17.1 ± 0.72 | 21.3 ± 1.34 | Cc1cc2c(c(O)c1-c1c(C)cc3c(C(C)C)c(O)c(O)c(C=O)c3c1O)/C(=C/c1c(O)c3ccccc3oc1=O)C(=O)C(O)=C2C(C)C [Compound A-1, (Z)-1,1′,6,6′,7-pentahydroxy-8′-((4-hydroxy-2-oxo-2H-chromen-3-yl)methylene)-5,5′-diisopropyl-3,3′-dimethyl-7′-oxo-7′,8′-dihydro-[2,2′-binaphthalene]-8-carbaldehyde] |  |  |  | best antitumor activities |
| 58.6 ± 3.23 | > 100 | > 100 | Cc1cc(C)c2c(O)c(/C=C3\C(=O)C(O)=C(C(C)C)c4cc(C)c(-c5c(C)cc6c(c5O)/C(=C/c5c(O)c7c(C)cc(C)cc7oc5=O)C(=O)C(O)=C6C(C)C)c(O)c43)c(=O)oc2c1 [Compound B-6, (8Z,8′Z)-1,1′,6,6′-tetrahydroxy-8,8′-bis((4-hydroxy-5,7-dimethyl-2-oxo-2H-chromen-3-yl)methylene)-5,5′-diisopropyl-3,3′-dimethyl-[2,2′-binaphthalene]-7,7′(8H,8′H)-dione] |  |  |  |  |

From US9758503B1, “Coumarin-gossypol derivatives with antitumor activities and a method of preparing the same” (SHAANXI UNIVERSITY OF SCIENCE AND TECHNOLOGY, priority 2017, dated 2017)
